From patent US11109593B2, “Isoxazolin-5-one derivative and herbicide containing same as active ingredient” (HOKKO CHEMICAL INDUSTRY CO., LTD., priority 2017, dated 2021)

tested on: Chenopodium album; experiment: Test Example 4: herbicidal effect test by treatment of leave and stem in dry field farming (seven days after seeding); type: in vivo; settings: 120 g/10a active ingredient; emulsion sprayed seven days after seeding; evaluated 14 days after treatment
Outline: (§1)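 Duplicate pots were scored 14 days post-spray by dry weight, herbicidal rate = {1 − treated/untreated average dry weight} × 100. The water-diluted emulsion, equivalent to 120 g active ingredient per 10 ares in 100 L, was applied seven days after sowing 20 seeds each into the upper 1 cm of alluvial soil.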

Row | Compound | herbicidal effect (herbicidal rate), Chenopodium album [%]
1 | C=CCOC(=O)N(c1ccccc1Cc1c(C)n(C(C)CC)oc1=O)S(=O)(=O)C(F)(F)F (stereo not drawn) [Compound 1-706] | 40
2 | CCC(C)n1oc(=O)c(Cc2ccccc2N(C(=O)CC(C)C)S(=O)(=O)C(F)(F)F)c1C (stereo not drawn) [Compound 1-352] | 40
3 | CCC(CC)n1oc(=O)c(Cc2ccccc2N(C(C)=O)S(=O)(=O)C(F)(F)F)c1C [Compound 1-295] | 40

tested on: southern crabgrass; experiment: as above; type: in vivo; settings: 120 g/10a active ingredient; emulsion sprayed seven days after seeding; evaluated 14 days after treatment
Outline: as §1

Row | Compound | herbicidal effect (herbicidal rate), southern crabgrass [%]
4 | C=CCOC(=O)N(c1ccccc1Cc1c(C)n(C(C)CC)oc1=O)S(=O)(=O)C(F)(F)F (stereo not drawn) [Compound 1-706] | 90
5 | CCC(C)n1oc(=O)c(Cc2ccccc2N(C(=O)CC(C)C)S(=O)(=O)C(F)(F)F)c1C (stereo not drawn) [Compound 1-352] | 90
6 | CCC(CC)n1oc(=O)c(Cc2ccccc2N(C(C)=O)S(=O)(=O)C(F)(F)F)c1C [Compound 1-295] | 90

tested on: Echinochloa crus-galli; experiment: as above; type: in vivo; settings: 120 g/10a active ingredient; emulsion sprayed seven days after seeding; evaluated 14 days after treatment
Outline: as §1

Row | Compound | herbicidal effect (herbicidal rate), Echinochloa crus-galli [%]
7 | C=CCOC(=O)N(c1ccccc1Cc1c(C)n(C(C)CC)oc1=O)S(=O)(=O)C(F)(F)F (stereo not drawn) [Compound 1-706] | 90
8 | CCC(C)n1oc(=O)c(Cc2ccccc2N(C(=O)CC(C)C)S(=O)(=O)C(F)(F)F)c1C (stereo not drawn) [Compound 1-352] | 90
9 | CCC(CC)n1oc(=O)c(Cc2ccccc2N(C(C)=O)S(=O)(=O)C(F)(F)F)c1C [Compound 1-295] | 90

tested on: Amaranthus viridis; experiment: as above; type: in vivo; settings: 120 g/10a active ingredient; emulsion sprayed seven days after seeding; evaluated 14 days after treatment
Outline: as §1

Row | Compound | herbicidal effect (herbicidal rate), Amaranthus viridis [%]
10 | C=CCOC(=O)N(c1ccccc1Cc1c(C)n(C(C)CC)oc1=O)S(=O)(=O)C(F)(F)F (stereo not drawn) [Compound 1-706] | 40
11 | CCC(C)n1oc(=O)c(Cc2ccccc2N(C(=O)CC(C)C)S(=O)(=O)C(F)(F)F)c1C (stereo not drawn) [Compound 1-352] | 40
12 | CCC(CC)n1oc(=O)c(Cc2ccccc2N(C(C)=O)S(=O)(=O)C(F)(F)F)c1C [Compound 1-295] | 40

tested on: Chenopodium album; experiment: Test Example 3: herbicidal effect test by treatment of dry field farming soil (one day after seeding); type: in vivo; settings: 120 g/10a active ingredient, evaluated 14 days after treatment
Outline: (§2)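 Herbicidal rate (%) = {1 − treated/untreated mean plant dry weight} × 100, scored 14 days after spraying, duplicate pots per concentration. Emulsified compound was water-diluted and applied to soil surface one day post-seeding at 120 g a.i. per 10 ares.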

Row | Compound | herbicidal rate, Chenopodium album [%]
13 | C=CCOC(=O)N(c1ccccc1Cc1c(C)n(C(C)CC)oc1=O)S(=O)(=O)C(F)(F)F (stereo not drawn) [Compound 1-706] | 90
14 | CCC(C)n1oc(=O)c(Cc2ccccc2N(C(=O)CC(C)C)S(=O)(=O)C(F)(F)F)c1C (stereo not drawn) [Compound 1-352] | 90
15 | CCC(CC)n1oc(=O)c(Cc2ccccc2N(C(C)=O)S(=O)(=O)C(F)(F)F)c1C [Compound 1-295] | 90

tested on: southern crabgrass; experiment: as above; type: in vivo; settings: 120 g/10a active ingredient, evaluated 14 days after treatment
Outline: as §2

Row | Compound | herbicidal rate, southern crabgrass [%]
16 | C=CCOC(=O)N(c1ccccc1Cc1c(C)n(C(C)CC)oc1=O)S(=O)(=O)C(F)(F)F (stereo not drawn) [Compound 1-706] | 90
17 | CCC(C)n1oc(=O)c(Cc2ccccc2N(C(=O)CC(C)C)S(=O)(=O)C(F)(F)F)c1C (stereo not drawn) [Compound 1-352] | 90
18 | CCC(CC)n1oc(=O)c(Cc2ccccc2N(C(C)=O)S(=O)(=O)C(F)(F)F)c1C [Compound 1-295] | 90

tested on: Echinochloa crus-galli; experiment: as above; type: in vivo; settings: 120 g/10a active ingredient, evaluated 14 days after treatment
Outline: as §2

Row | Compound | herbicidal rate, Echinochloa crus-galli [%]
19 | C=CCOC(=O)N(c1ccccc1Cc1c(C)n(C(C)CC)oc1=O)S(=O)(=O)C(F)(F)F (stereo not drawn) [Compound 1-706] | 90
20 | CCC(C)n1oc(=O)c(Cc2ccccc2N(C(=O)CC(C)C)S(=O)(=O)C(F)(F)F)c1C (stereo not drawn) [Compound 1-352] | 90
21 | CCC(CC)n1oc(=O)c(Cc2ccccc2N(C(C)=O)S(=O)(=O)C(F)(F)F)c1C [Compound 1-295] | 90

tested on: Amaranthus viridis; experiment: as above; type: in vivo; settings: 120 g/10a active ingredient, evaluated 14 days after treatment
Outline: as §2

Row | Compound | herbicidal rate, Amaranthus viridis [%]
22 | C=CCOC(=O)N(c1ccccc1Cc1c(C)n(C(C)CC)oc1=O)S(=O)(=O)C(F)(F)F (stereo not drawn) [Compound 1-706] | 90
23 | CCC(C)n1oc(=O)c(Cc2ccccc2N(C(=O)CC(C)C)S(=O)(=O)C(F)(F)F)c1C (stereo not drawn) [Compound 1-352] | 90
24 | CCC(CC)n1oc(=O)c(Cc2ccccc2N(C(C)=O)S(=O)(=O)C(F)(F)F)c1C [Compound 1-295] | 90

tested on: broad leaf weeds (Lindernia pyxidaria and Monochoria vaginalis); experiment: Test Example 2: herbicidal effect test by treatment during growing period in paddy rice cultivation (seven days after seeding); type: in vivo; settings: Lindernia pyxidaria, 120 g/10a active ingredient, assessed 14 days after treatment, dry weight vs untreated area
Outline: (§3)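 Emulsion formulations, diluted in water, applied dropwise to flooded pots (about 3 cm water) 7 days post-seeding at 120 g a.i./10 ares. Weeds sown 30 seeds each, 0–1 cm deep in puddled paddy soil; greenhouse. Readout: % reduction in plant dry weight vs untreated, day 14, duplicates.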

Row | Compound | Herbicidal rate (%) Lindernia pyxidaria [%]
25 | C=CCOC(=O)N(c1ccccc1Cc1c(C)n(C(C)CC)oc1=O)S(=O)(=O)C(F)(F)F (stereo not drawn) [Compound 1-706] | 90
26 | CCC(C)n1oc(=O)c(Cc2ccccc2N(C(=O)CC(C)C)S(=O)(=O)C(F)(F)F)c1C (stereo not drawn) [Compound 1-352] | 90
27 | CCC(CC)n1oc(=O)c(Cc2ccccc2N(C(C)=O)S(=O)(=O)C(F)(F)F)c1C [Compound 1-295] | 90

same assay, conditions: Monochoria vaginalis, 120 g/10a active ingredient, assessed 14 days after treatment, dry weight vs untreated area

Row | Compound | Herbicidal rate (%) Monochoria vaginalis [%]
28 | C=CCOC(=O)N(c1ccccc1Cc1c(C)n(C(C)CC)oc1=O)S(=O)(=O)C(F)(F)F (stereo not drawn) [Compound 1-706] | 90
29 | CCC(C)n1oc(=O)c(Cc2ccccc2N(C(=O)CC(C)C)S(=O)(=O)C(F)(F)F)c1C (stereo not drawn) [Compound 1-352] | 90
30 | CCC(CC)n1oc(=O)c(Cc2ccccc2N(C(C)=O)S(=O)(=O)C(F)(F)F)c1C [Compound 1-295] | 90

tested on: Scirpus juncoides; experiment: as above; type: in vivo; settings: 120 g/10a active ingredient, assessed 14 days after treatment, dry weight vs untreated area
Outline: as §3

Row | Compound | Herbicidal rate (%) Scirpus juncoides [%]
31 | C=CCOC(=O)N(c1ccccc1Cc1c(C)n(C(C)CC)oc1=O)S(=O)(=O)C(F)(F)F (stereo not drawn) [Compound 1-706] | 90
32 | CCC(C)n1oc(=O)c(Cc2ccccc2N(C(=O)CC(C)C)S(=O)(=O)C(F)(F)F)c1C (stereo not drawn) [Compound 1-352] | 90
33 | CCC(CC)n1oc(=O)c(Cc2ccccc2N(C(C)=O)S(=O)(=O)C(F)(F)F)c1C [Compound 1-295] | 90

tested on: Echinochloa crus-galli; experiment: as above; type: in vivo; settings: 120 g/10a active ingredient, assessed 14 days after treatment, dry weight vs untreated area
Outline: as §3

Row | Compound | Herbicidal rate (%) Echinochloa crus-galli [%]
34 | C=CCOC(=O)N(c1ccccc1Cc1c(C)n(C(C)CC)oc1=O)S(=O)(=O)C(F)(F)F (stereo not drawn) [Compound 1-706] | 90
35 | CCC(C)n1oc(=O)c(Cc2ccccc2N(C(=O)CC(C)C)S(=O)(=O)C(F)(F)F)c1C (stereo not drawn) [Compound 1-352] | 90
36 | CCC(CC)n1oc(=O)c(Cc2ccccc2N(C(C)=O)S(=O)(=O)C(F)(F)F)c1C [Compound 1-295] | 90

tested on: broad leaf weeds (Lindernia pyxidaria and Monochoria vaginalis); experiment: Test Example 1: herbicidal effect test by treatment of rice paddy soil (immediately after seeding); type: in vivo; settings: Lindernia pyxidaria, 120 g/10a active ingredient, dry weight vs untreated area, 14 days after treatment
Outline: (§4)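 Applied at 120 g a.i./10 ares as diluted emulsion dropped into flooded (~3 cm) paddy soil pots right after sowing seeds 0–1 cm deep; greenhouse, two replicates. At day 14, dry weight of treated versus untreated plants gives % herbicidal rate.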

Row | Compound | Herbicidal rate (%) Lindernia pyxidaria [%]
37 | C=CCOC(=O)N(c1ccccc1Cc1c(C)n(C(C)CC)oc1=O)S(=O)(=O)C(F)(F)F (stereo not drawn) [Compound 1-706] | 90
38 | CCC(C)n1oc(=O)c(Cc2ccccc2N(C(=O)CC(C)C)S(=O)(=O)C(F)(F)F)c1C (stereo not drawn) [Compound 1-352] | 90
39 | CCC(CC)n1oc(=O)c(Cc2ccccc2N(C(C)=O)S(=O)(=O)C(F)(F)F)c1C [Compound 1-295] | 90

same assay, conditions: Monochoria vaginalis, 120 g/10a active ingredient, dry weight vs untreated area, 14 days after treatment

Row | Compound | Herbicidal rate (%) Monochoria vaginalis [%]
40 | C=CCOC(=O)N(c1ccccc1Cc1c(C)n(C(C)CC)oc1=O)S(=O)(=O)C(F)(F)F (stereo not drawn) [Compound 1-706] | 90
41 | CCC(C)n1oc(=O)c(Cc2ccccc2N(C(=O)CC(C)C)S(=O)(=O)C(F)(F)F)c1C (stereo not drawn) [Compound 1-352] | 90
42 | CCC(CC)n1oc(=O)c(Cc2ccccc2N(C(C)=O)S(=O)(=O)C(F)(F)F)c1C [Compound 1-295] | 90

tested on: Scirpus juncoides; experiment: as above; type: in vivo; settings: 120 g/10a active ingredient, dry weight vs untreated area, 14 days after treatment
Outline: as §4

Row | Compound | Herbicidal rate (%) Scirpus juncoides [%]
43 | C=CCOC(=O)N(c1ccccc1Cc1c(C)n(C(C)CC)oc1=O)S(=O)(=O)C(F)(F)F (stereo not drawn) [Compound 1-706] | 90
44 | CCC(C)n1oc(=O)c(Cc2ccccc2N(C(=O)CC(C)C)S(=O)(=O)C(F)(F)F)c1C (stereo not drawn) [Compound 1-352] | 90
45 | CCC(CC)n1oc(=O)c(Cc2ccccc2N(C(C)=O)S(=O)(=O)C(F)(F)F)c1C [Compound 1-295] | 90

tested on: Echinochloa crus-galli; experiment: as above; type: in vivo; settings: 120 g/10a active ingredient, dry weight vs untreated area, 14 days after treatment
Outline: as §4

Row | Compound | Herbicidal rate (%) Echinochloa crus-galli [%]
46 | C=CCOC(=O)N(c1ccccc1Cc1c(C)n(C(C)CC)oc1=O)S(=O)(=O)C(F)(F)F (stereo not drawn) [Compound 1-706] | 90
47 | CCC(C)n1oc(=O)c(Cc2ccccc2N(C(=O)CC(C)C)S(=O)(=O)C(F)(F)F)c1C (stereo not drawn) [Compound 1-352] | 90
48 | CCC(CC)n1oc(=O)c(Cc2ccccc2N(C(C)=O)S(=O)(=O)C(F)(F)F)c1C [Compound 1-295] | 90
